According to the supplement of paper PMC11451515:

Test system: P12-Ichikawa
Experiment: cell viability relative to DMSO control; higher = less cytotoxic
Conditions: 48 h
In short: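 NOMO1 or SEM (500 cells/well) or P12-Ichikawa (1000 cells/well) leukemia cells were adapted for at least four passages in each medium. They were seeded in 1536-well plates (5 μl) and pin-dosed with library compounds in DMSO over an 11-point threefold series, 47 μM to 0.79 nM. CellTiter-Glo One luminescence was read after 48 h at 37°C. Viability is the per-plate percentage relative to DMSO wells, with cell-free wells as background.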

[1] = HPLM + 10% dialyzed FBS, 0.000781 µM
[2] = HPLM + 10% dialyzed FBS, 0.00234 µM
[3] = HPLM + 10% dialyzed FBS, 0.00702 µM
[4] = HPLM + 10% dialyzed FBS, 0.0211 µM
[5] = HPLM + 10% dialyzed FBS, 0.0632 µM
[6] = HPLM + 10% dialyzed FBS, 0.19 µM
[7] = HPLM + 10% dialyzed FBS, 0.569 µM
[8] = HPLM + 10% dialyzed FBS, 1.71 µM
[9] = HPLM + 10% dialyzed FBS, 5.12 µM
[10] = HPLM + 10% dialyzed FBS, 15.4 µM
[11] = HPLM + 10% dialyzed FBS, 46.1 µM
[12] = RPMI 5 mM glucose + 10% FBS, 0.000781 µM
[13] = RPMI 5 mM glucose + 10% FBS, 0.00234 µM
[14] = RPMI 5 mM glucose + 10% FBS, 0.00702 µM
[15] = RPMI 5 mM glucose + 10% FBS, 0.0211 µM
[16] = RPMI 5 mM glucose + 10% FBS, 0.0632 µM
[17] = RPMI 5 mM glucose + 10% FBS, 0.19 µM
[18] = RPMI 5 mM glucose + 10% FBS, 0.569 µM
[19] = RPMI 5 mM glucose + 10% FBS, 1.71 µM
[20] = RPMI 5 mM glucose + 10% FBS, 5.12 µM
[21] = RPMI 5 mM glucose + 10% FBS, 15.4 µM
[22] = RPMI 5 mM glucose + 10% FBS, 46.1 µM
[23] = RPMI 5 mM glucose + 10% dialyzed FBS, 0.000781 µM
[24] = RPMI 5 mM glucose + 10% dialyzed FBS, 0.00234 µM
[25] = RPMI 5 mM glucose + 10% dialyzed FBS, 0.00702 µM
[26] = RPMI 5 mM glucose + 10% dialyzed FBS, 0.0211 µM
[27] = RPMI 5 mM glucose + 10% dialyzed FBS, 0.0632 µM
[28] = RPMI 5 mM glucose + 10% dialyzed FBS, 0.19 µM
[29] = RPMI 5 mM glucose + 10% dialyzed FBS, 0.569 µM
[30] = RPMI 5 mM glucose + 10% dialyzed FBS, 1.71 µM
[31] = RPMI 5 mM glucose + 10% dialyzed FBS, 5.12 µM
[32] = RPMI 5 mM glucose + 10% dialyzed FBS, 15.4 µM
[33] = RPMI 5 mM glucose + 10% dialyzed FBS, 46.1 µM

| Compound | cell viability [1] [%] | cell viability [2] [%] | cell viability [3] [%] | cell viability [4] [%] | cell viability [5] [%] | cell viability [6] [%] | cell viability [7] [%] | cell viability [8] [%] | cell viability [9] [%] | cell viability [10] [%] | cell viability [11] [%] | cell viability [12] [%] | cell viability [13] [%] | cell viability [14] [%] | cell viability [15] [%] | cell viability [16] [%] | cell viability [17] [%] | cell viability [18] [%] | cell viability [19] [%] | cell viability [20] [%] | cell viability [21] [%] | cell viability [22] [%] | cell viability [23] [%] | cell viability [24] [%] | cell viability [25] [%] | cell viability [26] [%] | cell viability [27] [%] | cell viability [28] [%] | cell viability [29] [%] | cell viability [30] [%] | cell viability [31] [%] | cell viability [32] [%] | cell viability [33] [%] |
| --- | --- | --- | --- | --- | --- | --- | --- | --- | --- | --- | --- | --- | --- | --- | --- | --- | --- | --- | --- | --- | --- | --- | --- | --- | --- | --- | --- | --- | --- | --- | --- | --- | --- |
| COc1ccc(C(C)=O)c(O)c1 | 100 | 106 | 115 | 109 | 109 | 114 | 117 | 102 | 107 | 24 | 31 | 115 | 115 | 106 | 120 | 128 | 117 | 114 | 112 | 116 | 22 | 30.6 | 103 | 109 | 109 | 104 | 110 | 114 | 114 | 99.9 | 110 | 25.8 | 25.4 |
| NC/1=N/C2=C([NH]C=N2)C(=S)N1 | 113 | 122 | 116 | 123 | 123 | 121 | 120 | 119 | 98.2 | 94.2 | 28.9 | 119 | 120 | 124 | 116 | 131 | 130 | 116 | 119 | 96 | 88.1 | 21.2 | 105 | 117 | 124 | 122 | 125 | 112 | 118 | 110 | 79 | 59.7 | 11.1 |
| CNC1CCC(N(Cc2cccc(-c3ccncc3)c2)C(=O)c2sc3c(F)ccc(F)c3c2Cl)CC1 (configuration not stated) | 87.6 | 101 | 106 | 105 | 107 | 109 | 104 | 114 | 101 | 99.3 | 71.4 | 92.9 | 109 | 98.2 | 104 | 110 | 105 | 108 | 100 | 106 | 94.9 | 72.8 | 92.8 | 102 | 105 | 105 | 97.5 | 105 | 106 | 94.3 | 103 | 93.6 | 55.3 |
| O=C(O)C1=NC(C(=O)O)CC(/C=C/N2c3cc(O)c(OC4OC(CO)C(O)C(O)C4O)cc3CC2C(=O)O)=C1 (configuration not stated) | 104 | 107 | 104 | 96.9 | 98.5 | 104 | 106 | 102 | 96.8 | 98 | 98.4 | 97.2 | 110 | 106 | 99.1 | 95.8 | 89.9 | 90.8 | 106 | 96.5 | 96.8 | 97.4 | 101 | 99.2 | 106 | 102 | 106 | 104 | 93.2 | 99.5 | 100 | 91.9 | 90.9 |
| O=C(Nc1ccc(F)c(C(F)(F)F)c1)Nc1nnc(-c2ccncc2)s1 | 125 | 121 | 119 | 115 | 129 | 112 | 120 | 115 | 119 | 111 | 100 | 113 | 127 | 125 | 109 | 112 | 114 | 114 | 118 | 113 | 111 | 99.5 | 115 | 121 | 129 | 113 | 123 | 120 | 127 | 115 | 114 | 106 | 113 |
| CNc1nccc(-c2cccnc2Oc2cc(C(=O)Nc3cccc(C(F)(F)F)c3)ccc2C)n1 | 105 | 111 | 111 | 113 | 106 | 122 | 118 | 123 | 117 | 91 | 105 | 112 | 113 | 112 | 119 | 119 | 121 | 115 | 127 | 119 | 82.8 | 103 | 105 | 101 | 104 | 114 | 112 | 110 | 112 | 120 | 111 | 90.7 | 103 |
| COc1cc(OC)c(/C=C/[S+](=O)([O-])Cc2ccc(OC)c(NCC(=O)[O][Na])c2)c(OC)c1 | 125 | 124 | 123 | 120 | 116 | 87.5 | 18.3 | 13.2 | 12.7 | 10.1 | 9.65 | 124 | 120 | 126 | 104 | 118 | 76.9 | 23.1 | 12.5 | 11.1 | 11.4 | 10.8 | 120 | 122 | 120 | 115 | 116 | 50.1 | 24.6 | 13.8 | 12 | 11.3 | 9.89 |
| Cc1cnc(-c2cc(N3CCN(C(=O)CC[S+](C)(=O)[O-])CC3)ncc2Cl)c(C)c1 | 117 | 116 | 114 | 130 | 124 | 131 | 126 | 122 | 130 | 128 | 128 | – | – | – | – | – | – | – | – | – | – | – | – | – | – | – | – | – | – | – | – | – | – |
| C\C1=C(\C=C(C#N)/C(=O)N1)C2=C[N]3C=CN=C3C=C2 | 88.1 | 82.3 | 87.3 | 89.8 | 87.1 | 84.6 | 89.9 | 88.5 | 85.1 | 91.5 | 92.5 | 88.8 | 80.1 | 82.9 | 88 | 79.3 | 79.2 | 80 | 81.7 | 86.6 | 80.5 | 84.7 | 81.7 | 72.9 | 78.3 | 78.7 | 81.5 | 78.8 | 80.7 | 78.3 | 80.4 | 74.9 | 77.9 |
| Cn1cnc2c1c(=O)[nH]c(=O)n2C | 105 | 107 | 100 | 104 | 110 | 105 | 112 | 108 | 97.1 | 98 | 9.4 | 104 | 104 | 93.9 | 97.6 | 103 | 103 | 100 | 98.5 | 99 | 82.2 | 34.1 | 102 | 102 | 103 | 102 | 100 | 99.8 | 103 | 97.9 | 87.2 | 80.9 | 25.7 |
| CCC(C)(Oc1ccc(C2(c3ccc(OC(C)(CC)C(=O)O)cc3)CCCCC2)cc1)C(=O)O (configuration not stated) | 109 | 106 | 103 | 110 | 99.2 | 103 | 103 | 106 | 107 | 94 | 98.4 | 90.9 | 95.6 | 97 | 93.2 | 97.8 | 97.2 | 97.6 | 101 | 100 | 92.1 | 94.1 | 87.5 | 95.5 | 89 | 86.6 | 96.8 | 92 | 82.1 | 91 | 89.1 | 86.7 | 85.3 |
| N=C(NCCCCCCNC(=N)NC(=N)Nc1ccc(Cl)cc1)NC(=N)Nc1ccc(Cl)cc1 | 89.4 | 95.2 | 93 | 95.7 | 92.6 | 93.3 | 95.2 | 101 | 92.9 | 97.9 | 93.8 | 83.8 | 82.8 | 92.1 | 90.1 | 93.6 | 97.6 | 91.4 | 80.2 | 95.1 | 81.2 | 56.3 | 85.4 | 85.3 | 90.4 | 86.9 | 94.1 | 95.5 | 87.5 | 88.1 | 86 | 89.3 | 70.3 |
| OC[C@H]1OCC(O1)[N@@]2C=CC(N)=NC2=O (some centres not stated) | 121 | 118 | 113 | 121 | 112 | 118 | 117 | 107 | 115 | 108 | 115 | 108 | 125 | 117 | 118 | 118 | 117 | 118 | 107 | 104 | 101 | 103 | 116 | 121 | 115 | 109 | 114 | 113 | 109 | 106 | 105 | 104 | 105 |
